SMILES strings stand for the structures.

The target in one experiment is T1, human LPA1 (Homo sapiens, UniProt Q92633).
T1 construct: expressed in transfected cells; host or cells: Chinese hamster ovary (CHO) cells
T1 sequence (Q92633 whole entry): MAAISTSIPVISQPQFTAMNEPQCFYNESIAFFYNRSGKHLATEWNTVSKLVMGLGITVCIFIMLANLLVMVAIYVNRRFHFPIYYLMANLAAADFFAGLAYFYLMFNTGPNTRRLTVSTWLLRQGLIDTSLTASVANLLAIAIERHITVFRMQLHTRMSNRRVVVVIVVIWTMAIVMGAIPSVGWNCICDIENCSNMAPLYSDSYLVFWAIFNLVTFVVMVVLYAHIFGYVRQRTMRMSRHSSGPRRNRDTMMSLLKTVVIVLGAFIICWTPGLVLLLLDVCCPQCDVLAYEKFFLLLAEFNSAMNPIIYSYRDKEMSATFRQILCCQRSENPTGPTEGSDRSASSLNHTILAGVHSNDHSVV
Nature of the experiment: LPA1 functional antagonist assay (LPA-induced calcium flux in CHO cells overexpressing human LPA1). The experiment is classed as cell-based. The following applies: inhibition of calcium flux induced by 10 nM LPA, CHO cells overexpressing human LPA1; read-out: hLPA1 IC50. An outline of the steps:
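CHO cells overexpressing human LPA1, dye-loaded 30 min at 37 °C, then given compound (0.08 nM–5 μM final, 0.5% DMSO) in HBSS/20 mM HEPES/0.1% fatty-acid-free BSA for 20 min at room temperature before 10 nM LPA. IC50 as 50% inhibition of LPA-evoked calcium flux, 4-parameter logistic fit.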
Broadly, the IC50 is the concentration at which inhibition is half-maximal. For `Cc1nc(-c2nnn(C)c2Cn2nnc(OCC(C)C)n2)ccc1O[C@H]1CCC[C@H](C(=O)O)C1` [Example 344, (1S,3S)-3-{[2-methyl-6-(1-methyl-5-{[5-(2-methylpropoxy)-2H-1,2,3,4-tetrazol-2-yl]methyl}-1H-1,2,3-triazol-4-yl)pyridin-3-yl]oxy}cyclohexane-1-carboxylic acid], the IC50 is 0.025 µM.

With `CCOCc1noc(Cc2c(-c3ccc(O[C@H]4CCC[C@H](C(=O)O)C4)c(C)n3)nnn2C)n1` [Example 249, (1S,3S)-3-((6-(5-((3-(ethoxymethyl)-1,2,4-oxadiazol-5-yl)methyl)-1-methyl-1H-1,2,3-triazol-4-yl)-2-methylpyridin-3-yl)oxy)cyclohexane-1-carboxylic acid], the IC50 is 0.076 µM. On to `Cc1nc(-c2nnn(C)c2Cn2cnc(CC3CC3)n2)ccc1O[C@H]1CCC[C@H](C(=O)O)C1` [Example 210], for which the IC50 was 0.191 µM. Turning to `CCc1nc(-c2nnn(C)c2Cn2nnnc2CC2CC2)ccc1O[C@H]1CCC[C@H](C(=O)O)C1` [Example 306, (1S,3S)-3-{[6-(5-{[5-(cyclopropyl-methyl)-1H-1,2,3,4-tetrazol-1-yl]methyl}-1-methyl-1H-1,2,3-triazol-4-yl)-2-ethylpyridin-3-yl]oxy}cyclohexane-1-carboxylic acid], the IC50 came out at 0.205 µM. In the case of `Cc1nc(-c2nnn(C)c2CNc2noc(C3CCC(F)(F)C3)n2)ccc1O[C@H]1CCC[C@H](C(=O)O)C1` (stereo partly shown) [Example 186], the IC50 was 0.079 µM. On the same count and under the same terms, then `Cc1nc(-c2nnn(C)c2CNc2nnc(CC(C)C)s2)ccc1O[C@H]1CCC[C@H](C(=O)O)C1` [Example 8], with 0.455 µM; and `C=CCC(C)c1nc(NCc2c(-c3ccc(O[C@H]4CCC[C@H](C(=O)O)C4)c(C)n3)nnn2C)no1` (stereo partly shown) [Example 202], with 0.0084 µM; and `CCOC1(c2nc(NCc3c(-c4ccc(O[C@H]5CCC[C@H](C(=O)O)C5)c(C)n4)nnn3C)no2)CC1` [Example 225, (1S,3S)-3-((6-(5-(((5-(1-ethoxy-cyclopropyl)-1,2,4-oxadiazol-3-yl)amino)methyl)-1-methyl-1H-1,2,3-triazol-4-yl)-2-methylpyridin-3-yl)oxy)cyclohexane-1-carboxylic acid], with 1.32 µM. For `Cc1nc(-c2nnn(C)c2Cn2nnc(OC3CCC3)n2)ccc1O[C@H]1CCC[C@H](C(=O)O)C1` [Example 333, (1S,3S)-3-[(6-{5-[(5-cyclobutoxy-2H-1,2,3,4-tetrazol-2-yl)methyl]-1-methyl-1H-1,2,3-triazol-4-yl}-2-methylpyridin-3-yl)oxy]cyclo-hexane-1-carboxylic acid], the IC50 is 0.048 µM.

In the case of `Cn1nnc(-c2ccc(O[C@H]3CCC[C@H](C(=O)O)C3)c(C#N)n2)c1Cn1cc(Cc2ccccc2)nn1` [Example 91], the concentration for half-maximal inhibition (IC50) was determined as 0.109 µM. With `Cc1nc(-c2nnn(C)c2Cn2cc(C(O)c3ccccc3)nn2)ccc1O[C@H]1CCC[C@H](C(=O)O)C1` (stereo partly shown) [Example 87], the IC50 turned out to be 0.363 µM. Take `CCCc1cn(Cc2c(-c3ccc(O[C@H]4CCC[C@H](C(=O)O)C4)c(C)n3)nnn2C)nn1` [Example 86]: the IC50 is 0.187 µM. As to `Cc1nc(-c2nnn(C)c2CNc2nnc(Cc3ccccc3)o2)ccc1O[C@H]1CCC[C@H](C(=O)O)C1` [Example 50], the IC50 turned out to be 0.096 µM. Take `Cn1nnc(-c2ccc(O[C@H]3CCC[C@H](C(=O)O)C3)c(C#N)n2)c1Cn1cc(CC2CCCCC2)nn1` [Example 94]: the IC50 was determined as 0.054 µM. `Cc1nc(-c2nnn(C)c2CNc2ncn(-c3ccc(F)cc3)n2)ccc1O[C@H]1CCC[C@H](C(=O)O)C1` [Example 39]: the IC50 is 0.061 µM. On the same count and under the same terms, under `Cc1nc(-c2nnn(C)c2Cn2nnnc2Cc2ccccc2)ccc1O[C@H]1CCC[C@H](C(=O)O)C1` [Example 110] stands 0.207 µM; under `Cc1nc(-c2nnn(C)c2Cn2ncc(C(C)C)n2)ccc1O[C@H]1CCC[C@H](C(=O)O)C1` [Example 272, (1S,3S)-3-((6-(5-((4-isopropyl-2H-1,2,3-triazol-2-yl)methyl)-1-methyl-1H-1,2,3-triazol-4-yl)-2-methylpyridin-3-yl)oxy)cyclohexane-1-carboxylic acid], 0.035 µM. The same measure, in the same setting: under `Cc1nc(-c2nnn(C)c2Cn2nc(C3CCC3)oc2=N)ccc1O[C@H]1CCC[C@H](C(=O)O)C1` [Example 46] stands 0.137 µM; under `CCCc1cnn(Cc2c(-c3ccc(O[C@H]4CCC[C@H](C(=O)O)C4)c(C)n3)nnn2C)n1` [Example 270, (1S,3S)-3-((2-methyl-6-(1-methyl-5-((4-propyl-2H-1,2,3-triazol-2-yl)methyl)-1H-1,2,3-triazol-4-yl)pyridin-3-yl)oxy)cyclohexane-1-carboxylic acid], 0.061 µM.

Regarding `Cc1nc(-c2nnn(C)c2CNc2nc(C3CCCC3)ns2)ccc1O[C@H]1CCC[C@H](C(=O)O)C1` [Example 100], the IC50 was 0.077 µM. Turning to `CCCc1nc(OCc2c(-c3ccc(O[C@H]4CCC[C@H](C(=O)O)C4)c(C)n3)nnn2C)no1` [Example 131], the IC50 came to 0.019 µM.

On to `Cn1nnc(-c2ccc(O[C@H]3CCC[C@H](C(=O)O)C3)cn2)c1CNc1noc(CCCC(F)(F)F)n1` [Example 292, (1S,3S)-3-((6-(1-methyl-5-(((5-(4,4,4-trifluorobutyl)-1,2,4-oxadi-azol-3-yl)amino)methyl)-1H-1,2,3-triazol-4-yl)pyridin-3-yl)oxy)cyclohexane-1-carboxylic acid], for which the IC50 is 0.0487 µM. As for `Cc1nc(-c2nnn(C)c2Nc2nc(-c3ccccc3)no2)ccc1O[C@H]1CCC[C@H](C(=O)O)C1` [Example 411, (1 S,3S)-3-((2-methyl-6-(1-methyl-5-((3-phenyl-1,2,4-oxadiazol-5-yl)amino)-1H-1,2,3-triazol-4-yl)pyridin-3-yl)oxy)cyclohexane-1-carboxylic acid], the IC50 came to 1.44 µM. The same measure, in the same setting: then `Cc1nc(-c2nnn(C)c2CNc2ncn(C(C)C)n2)ccc1O[C@H]1CCC[C@H](C(=O)O)C1` [Example 126], with 1.49 µM. The same measure, in the same setting: then `Cc1nc(-c2nnn(C)c2CNc2noc(CCC(C)(F)F)n2)ccc1O[C@H]1CCC[C@H](C(=O)O)C1` [Example 188], with 0.042 µM.

The same experiment, now with this note: read-out: hLPA1 IC50.
With `CCCCn1nnc(Cc2c(-c3ccc(O[C@H]4CCC[C@H](C(=O)O)C4)c(C)n3)nnn2C)n1` [Example 366, (1S,3S)-3-((6-(5-((2-butyl-2H-tetrazol-5-yl)methyl)-1-methyl-1H-1,2,3-triazol-4-yl)-2-methylpyridin-3-yl)oxy)cyclohexane-1-carboxylic acid], the half-inhibitory concentration (IC50) came to 0.043 µM. In the case of `COC[C@@H](C)Oc1nnn(Cc2c(-c3ccc(O[C@H]4CCC[C@H](C(=O)O)C4)c(C)n3)nnn2C)n1` [Example 403, (1S,3S)-3-[(6-{5-[(5-{[(2R)-1-methoxypropan-2-yl]oxyl}-2H-1,2,3,4-tetrazol-2-yl)methyl]-1-methyl-1H-1,2,3-triazol-4-yl}-2-methylpyridin-3-yl)oxy]cyclo-hexane-1-carboxylic acid], the IC50 came to 0.25 µM. On to `Cc1nc(-c2nnn(C)c2CNc2nnnn2Cc2ccccc2)ccc1O[C@H]1CCC[C@H](C(=O)O)C1` [Example 390, (1S,3S)-3-((6-(5-(((1-benzyl-1H-tetrazol-5-yl)amino)methyl)-1-methyl-1H-1,2,3-triazol-4-yl)-2-methylpyridin-3-yl)oxy)cyclo-hexane-1-carboxylic acid], for which the IC50 turned out to be 0.375 µM.

For the origin of these results see US11319315B2, “Cyclohexyl acid triazole azoles as LPA antagonists” (BRISTOL-MYERS SQUIBB COMPANY, priority 2017, dated 2022).
